Biological target: human P2X3 receptor (Homo sapiens (Human), UniProt P56373)
Experiment: Evaluation of human P2X3 receptor inhibitory activity (Fluo-3 calcium fluorescence, FDSS 3000, ATP stimulation);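 note: stimulus was 50 nM ATP with fluorescence followed for 3 min, and the response per well was peak post-ATP fluorescence divided by the reading at measurement start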
Format: cell-based
Conditions: C6BU-1 cells stably expressing human P2X3 receptor

human P2X3 receptor, sequence (P56373 whole entry): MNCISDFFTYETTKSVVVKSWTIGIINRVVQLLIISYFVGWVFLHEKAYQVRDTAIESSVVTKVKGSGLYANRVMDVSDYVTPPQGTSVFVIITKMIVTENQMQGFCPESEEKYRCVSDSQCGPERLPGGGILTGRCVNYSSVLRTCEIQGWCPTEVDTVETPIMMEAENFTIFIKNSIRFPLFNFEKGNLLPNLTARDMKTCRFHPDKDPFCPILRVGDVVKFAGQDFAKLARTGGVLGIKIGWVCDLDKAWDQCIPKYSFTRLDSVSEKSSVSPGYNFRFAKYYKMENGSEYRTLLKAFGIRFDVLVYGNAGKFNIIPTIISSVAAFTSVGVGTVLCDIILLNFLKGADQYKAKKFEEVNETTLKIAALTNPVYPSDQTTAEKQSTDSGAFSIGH

| SMILES | IC50 (Fluo-3 fluorescence, FDSS 3000) [nM] | IC50 [nM] |
| --- | --- | --- |
| C[C@@H](C(=O)O)[C@H](C)n1c(=O)[nH]/c(=N\c2ccc3cc(Br)ccc3c2)n(Cc2ccc(Cl)cc2)c1=O [Compound I-1832] | 32 | – |
| C[C@@H](C(=O)O)[C@H](C)n1c(=O)[nH]/c(=N\c2ccc3c(c2)CCO3)n(Cc2ccc(Cl)cc2)c1=O [Compound I-1833] | 580 | – |
| C[C@@H](C(=O)O)[C@H](C)n1c(=O)[nH]/c(=N\c2ccc3ncccc3c2)n(Cc2ccc(Cl)cc2)c1=O [Compound I-1834] | 325 | – |
| Cc1cc(Oc2ccc(/N=c3\[nH]c(=O)n(CCCO)c(=O)n3Cc3ccc(Cl)cc3)cc2)no1 [Compound I-1835] | 8 | – |
| COC(=O)CCn1c(=O)[nH]/c(=N\c2cc(C(=O)OC)n(C)c2)n(Cc2ccc(C)cc2)c1=O [Compound I-1836] | 787 | – |
| Cc1ccc(Cn2c(=O)n(CCC(=O)O)c(=O)[nH]/c2=N\c2cn(C)nc2C(=O)NC(C)C)cc1 [Compound I-1839] | 107 | – |
| CCc1oc2ccc(/N=c3\[nH]c(=O)n(CC4COC(C)(C)OC4)c(=O)n3Cc3ccc(Cl)cc3)cc2c1C [Compound I-1840] | 7 | – |
| CC1(C)OCC(Cn2c(=O)[nH]/c(=N\c3ccc(OCC4CC4)cc3)n(Cc3ccc(Cl)cc3)c2=O)CO1 [Compound I-1841] | 6 | – |
| CCc1oc2ccc(/N=c3\[nH]c(=O)n(CC(CO)CO)c(=O)n3Cc3ccc(Cl)cc3)cc2c1C [Compound I-1842] | 5 | – |
| COc1ccc(Oc2ccc(/N=c3\[nH]c(=O)n(CC(CO)CO)c(=O)n3Cc3ccc(Cl)cc3)cc2)cn1 [Compound I-1843] | 4 | – |
| CCn1c(=O)[nH]/c(=N\c2ccc(Oc3ccnc(CO)c3)cc2)n(Cc2ccc(Cl)cc2)c1=O [Compound I-1844] | 4 | – |
| C[C@@H](Oc1ccc(/N=c2\[nH]c(=O)n(C[C@H](O)CO)c(=O)n2Cc2ccc(Cl)cc2)cc1)C(F)(F)F [Compound I-1845] | 33 | – |
| CNC(=O)c1cc(Oc2ccc(/N=c3\[nH]c(=O)[nH]c(=O)n3Cc3ccc(Cl)cc3)cc2)ccn1 [Compound I-1846] | 15 | – |
| CCn1c(=O)[nH]/c(=N\c2ccc(Oc3ccc(OC)nc3)cc2)n(Cc2ccc(Cl)cc2)c1=O [Compound I-1847] | 6 | – |
| CCn1c(=O)[nH]/c(=N\c2ccc(Oc3ccc(O)nc3)cc2)n(Cc2ccc(Cl)cc2)c1=O [Compound I-1848] | 14 | – |
| CC(=O)OCC(CO)CCn1c(=O)[nH]/c(=N\c2ccc3nc(C)sc3c2)n(Cc2ccc(Cl)cc2)c1=O (stereo not drawn) [Compound I-1851] | 4 | – |
| Cc1nc2ccc(/N=c3\[nH]c(=O)n(CCC4COC(C)(C)OC4)c(=O)n3Cc3ccc(Cl)cc3)cc2s1 [Compound I-1852] | 5 | – |
| Cc1nc2ccc(/N=c3\[nH]c(=O)n(CCC(CO)CO)c(=O)n3Cc3ccc(Cl)cc3)cc2s1 [Compound I-1853] | 4 | – |
| CC1(C)OC[C@H](Cn2c(=O)[nH]/c(=N\c3ccc(OCC4CC4)cc3)n(Cc3ccc(Cl)cc3)c2=O)O1 [Compound I-1854] | 4 | – |
| O=c1[nH]/c(=N\c2ccc(OCC3CC3)cc2)n(Cc2ccc(Cl)cc2)c(=O)n1C[C@H](O)CO [Compound I-1855] | 21 | – |
| COc1ccc(Oc2ccc(/N=c3\[nH]c(=O)n(CC(N)=O)c(=O)n3Cc3ccc(Cl)cc3)cc2)cn1 [Compound I-1856] | 8 | – |
| CNC(=O)Cn1c(=O)[nH]/c(=N\c2ccc(Oc3ccc(OC)nc3)cc2)n(Cc2ccc(Cl)cc2)c1=O [Compound I-1857] | 7 | – |

| SMILES | IC50 (Fluo-3 fluorescence, FDSS 3000) [nM] | IC50 [nM] |
| --- | --- | --- |
| COc1ccc(Oc2ccc(/N=c3\[nH]c(=O)n(CC(=O)NCCO)c(=O)n3Cc3ccc(Cl)cc3)cc2)cn1 [Compound I-1858] | 5 | – |
| CCn1c(=O)[nH]/c(=N\c2ccc(Oc3cc(OC)ncn3)cc2)n(Cc2ccc(Cl)cc2)c1=O [Compound I-1859] | 5 | – |
| CCOC(=O)CCn1c(=O)[nH]/c(=N\c2ccc(OC(C)C)c(F)c2)n(CC2C[C@H]3CC[C@@H]2C3)c1=O (stereo partly drawn) [Compound I-1860] | 150 | – |
| CC(C)Oc1ccc(/N=c2\[nH]c(=O)n(CCC(=O)O)c(=O)n2CC2C[C@H]3CC[C@@H]2C3)cc1F (stereo partly drawn) [Compound I-1862] | 552 | – |
| CCn1c(=O)[nH]/c(=N\c2ccc(Oc3cncc(C(=O)OC)c3)cc2)n(Cc2ccc(Cl)cc2)c1=O [Compound I-1863] | 5 | – |
| CCOc1ccc(Cc2nc(=O)n(C[C@H](C)C(=O)OC)c(=O)n2Cc2ccc(Cl)cc2)cc1 [Compound I-1864] | 186 | – |
| COC(=O)[C@@H](C)Cn1c(=O)nc(Cc2ccccc2C)n(Cc2ccc(Cl)cc2)c1=O [Compound I-1865] | 357 | – |
| COC(=O)[C@@H](C)Cn1c(=O)nc(Cc2ccc(OC)c(F)c2)n(Cc2ccc(Cl)cc2)c1=O [Compound I-1869] | 328 | – |
| CCn1c(=O)[nH]/c(=N\c2ccc(Oc3ccc(C(N)=O)cc3)cc2)n(Cc2ccc(Cl)cc2)c1=O [Compound I-1870] | 4 | – |
| CCn1c(=O)[nH]/c(=N\c2ccc(Oc3ccc(NC(C)=O)cc3)cc2)n(Cc2ccc(Cl)cc2)c1=O [Compound I-1871] | 6 | – |
| CCOC(=O)CCn1c(=O)[nH]/c(=N\c2ccc(Oc3ccc(F)cc3)cc2)n(Cc2ccc(Cl)cc2)c1=O [Compound I-1872] | 15 | – |
| COC(=O)CCCCn1c(=O)[nH]/c(=N\c2ccc(OC(C)C)c(Cl)c2)n(Cc2ccc(C)cc2)c1=O [Compound I-1873] | 2 | – |
| Cc1ccc(Cn2c(=O)n(CCC(=O)NS(C)(=O)=O)c(=O)[nH]/c2=N\c2ccc(OC(C)C)c(Cl)c2)cc1 [Compound I-1874] | 13 | – |
| CCc1nc2ccc(/N=c3\[nH]c(=O)n(CCC(=O)NS(C)(=O)=O)c(=O)n3Cc3ccc(Cl)cc3)cc2s1 [Compound I-1875] | 13 | – |
| CC(C)Oc1ccc(/N=c2\[nH]c(=O)n(CC(=O)NS(C)(=O)=O)c(=O)n2Cc2ccc(Cl)cc2)cc1Cl [Compound I-1876] | 35 | – |
| O=C(O)CCn1c(=O)[nH]/c(=N\c2ccc(Oc3ccc(F)cc3)cc2)n(Cc2ccc(Cl)cc2)c1=O [Compound I-1877] | 36 | – |
| Cc1ccc(Cn2c(=O)n(CCCCC(=O)O)c(=O)[nH]/c2=N\c2ccc(OC(C)C)c(Cl)c2)cc1 [Compound I-1878] | 10 | – |
| COC(=O)c1cc(/N=c2\[nH]c(=O)n(CCC(=O)O)c(=O)n2Cc2ccc(C)cc2)cn1C [Compound I-1879] | 128 | – |
| CCn1c(=O)[nH]/c(=N\c2ccc(Oc3cccc(C(=O)OC)c3)cc2)n(Cc2ccc(Cl)cc2)c1=O [Compound I-1880] | 15 | – |
| CCn1c(=O)[nH]/c(=N\c2ccc(Oc3cccc(C(=O)O)c3)cc2)n(Cc2ccc(Cl)cc2)c1=O [Compound I-1881] | 6 | – |
| C[C@@H](Oc1ccc(/N=c2\[nH]c(=O)n(CC(CO)CO)c(=O)n2Cc2ccc(Cl)cc2)cc1)C(F)(F)F [Compound I-1882] | 16 | – |
| O=C(O)c1cc(Oc2ccc(/N=c3\[nH]c(=O)[nH]c(=O)n3Cc3ccc(Cl)cc3)cc2)ccn1 [Compound I-1883] | 7 | – |

| SMILES | IC50 (Fluo-3 fluorescence, FDSS 3000) [nM] | IC50 [nM] |
| --- | --- | --- |
| CCOC(=O)CCn1c(=O)[nH]/c(=N\c2ccc(OC(C)C)c(F)c2)n(CC2CCC(F)(F)CC2)c1=O [Compound I-1884] | 296 | – |
| CCn1c(=O)[nH]/c(=N\c2ccc(Oc3cncc(C(=O)O)c3)cc2)n(Cc2ccc(Cl)cc2)c1=O [Compound I-1885] | 7 | – |
| CCOc1ccc(/N=c2\[nH]c(=O)n(CC3COC(C)(C)OC3)c(=O)n2Cc2ccc(Cl)cc2)cc1Cl [Compound I-1886] | 3 | – |
| CCOc1ccc(/N=c2\[nH]c(=O)n(C[C@H]3COC(C)(C)O3)c(=O)n2Cc2ccc(Cl)cc2)cc1Cl [Compound I-1887] | 3 | – |
| CCn1c(=O)[nH]/c(=N\c2ccc(Oc3cc(O)ncn3)cc2)n(Cc2ccc(Cl)cc2)c1=O [Compound I-1888] | 10 | – |
| CCn1c(=O)[nH]/c(=N\c2ccc(Oc3cccc(CC(=O)OC)c3)cc2)n(Cc2ccc(Cl)cc2)c1=O [Compound I-1889] | 23 | – |
| COC(=O)CCn1c(=O)[nH]/c(=N\c2ccccc2NC(C)=O)n(Cc2ccc(C)cc2)c1=O [Compound I-1892] | 113 | – |
| COC(=O)CCn1c(=O)[nH]/c(=N\c2cc(-c3ccncc3)c[nH]c2=O)n(Cc2ccc(C)cc2)c1=O [Compound I-1893] | 178 | – |
| CCn1c(=O)[nH]/c(=N\c2ccc(Oc3cccc(CC(=O)O)c3)cc2)n(Cc2ccc(Cl)cc2)c1=O [Compound I-1894] | 23 | – |
| NC(=O)c1cc(Oc2ccc(/N=c3\[nH]c(=O)[nH]c(=O)n3Cc3ccc(Cl)cc3)cc2)ccn1 [Compound I-1896] | 14 | – |
| O=C(NCCO)c1cc(Oc2ccc(/N=c3\[nH]c(=O)[nH]c(=O)n3Cc3ccc(Cl)cc3)cc2)ccn1 [Compound I-1897] | 24 | – |
| O=C(NCC(F)(F)F)c1cc(Oc2ccc(/N=c3\[nH]c(=O)[nH]c(=O)n3Cc3ccc(Cl)cc3)cc2)ccn1 [Compound I-1898] | 11 | – |
| Cc1cc(/N=c2\[nH]c(=O)n(CC3COC(C)(C)OC3)c(=O)n2Cc2ccc(Cl)cc2)ccc1OC(C)C [Compound I-1899] | 4 | – |
| NC(=O)Cn1c(=O)[nH]/c(=N\c2ccc(Oc3ccc(O)nc3)cc2)n(Cc2ccc(Cl)cc2)c1=O [Compound I-1900] | 16 | – |
| CNC(=O)Cn1c(=O)[nH]/c(=N\c2ccc(Oc3ccc(O)nc3)cc2)n(Cc2ccc(Cl)cc2)c1=O [Compound I-1901] | 15 | – |
| O=C(Cn1c(=O)[nH]/c(=N\c2ccc(Oc3ccc(O)nc3)cc2)n(Cc2ccc(Cl)cc2)c1=O)NCCO [Compound I-1902] | 8 | – |
| COC(=O)Cn1c(=O)[nH]/c(=N\c2ccc(Oc3ccnc(O)c3)cc2)n(Cc2ccc(Cl)cc2)c1=O [Compound I-1903] | 4 | – |
| COC(=O)Cn1c(=O)[nH]/c(=N\c2ccc(Oc3ccc(C)nc3)cc2)n(Cc2ccc(Cl)cc2)c1=O [Compound I-1904] | 8 | – |
| Cc1cc(/N=c2\[nH]c(=O)n(CC(CO)CO)c(=O)n2Cc2ccc(Cl)cc2)ccc1OC(C)C [Compound I-1905] | 5 | – |
| CCOc1ccc(/N=c2\[nH]c(=O)n(CC(CO)CO)c(=O)n2Cc2ccc(Cl)cc2)cc1Cl [Compound I-1906] | 6 | – |
| CCOc1ccc(/N=c2\[nH]c(=O)n(C[C@H](O)CO)c(=O)n2Cc2ccc(Cl)cc2)cc1Cl [Compound I-1907] | 8 | – |
| C[C@@H](Oc1ccc(/N=c2\[nH]c(=O)n(CCC(=O)O)c(=O)n2Cc2ccc(Cl)cc2)cc1)C(F)(F)F [Compound I-1908] | – | 70 |

Source: patent publication US9718790B2, “Triazine derivative and pharmaceutical composition having an analgesic activity comprising the same” (SHIONOGI & CO., LTD., priority 2010, dated 2017)
